Experimental data as given in the supplement of paper PMC10307832.

Key:
Test in all cases: relative viability (nuclei count vs DMSO), 5 days (fraction); higher = more cells survive
[1] = compound: NS(=O)(=O)OC[C@@H]1C[C@@H](n2ccc3c(N[C@H]4CCc5ccccc54)ncnc32)C[C@@H]1O [MLN4924] + Nc1nc2[nH]cc(CCc3ccc(C(=O)N[C@@H](CCC(=O)O)C(=O)O)cc3)c2c(=O)[nH]1 [Pemetrexed] (partner 0.2 µM)
Summary of the method: (§1)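 Relative viability equals treated-well nuclei counts divided by vehicle-well nuclei counts. Counts came from 4× images of lung cancer cell lines grown in 1536-well plates for 5 days after pin-tool dosing on the day after seeding. Dosing used one drug alone or a fixed anchor-drug dose plus five library-drug doses (not always all listed) in √10 steps, and values are medians of duplicate plates.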

[2] = compound: CC[C@H](C)N1C=C(C2=C(C=C(C=C21)C3=CN=C(C=C3)N4CCNCC4)C(=O)NCC5=C(C=C(NC5=O)C)C)C [GSK126] + COc1cc2c(Oc3ccc(NC(=O)C4(C(=O)Nc5ccc(F)cc5)CC4)cc3F)ccnc2cc1OCCCN1CCOCC1 [Foretinib] (partner 0.25 µM)
Summary of the method: as §1

[3] = compound: CC[C@H](C)N1C=C(C2=C(C=C(C=C21)C3=CN=C(C=C3)N4CCNCC4)C(=O)NCC5=C(C=C(NC5=O)C)C)C [GSK126] + Nc1nc2[nH]cc(CCc3ccc(C(=O)N[C@@H](CCC(=O)O)C(=O)O)cc3)c2c(=O)[nH]1 [Pemetrexed] (partner 0.2 µM)
Summary of the method: as §1

[4] = compound: C1CC(C1)(C(=O)O)C(=O)O.[NH2-].[NH2-].[Pt+2] [Carboplatin] + CCNC(=O)c1noc(-c2cc(C(C)C)c(O)cc2O)c1-c1ccc(CN2CCOCC2)cc1 [Luminespib] (partner 0.01 µM)
Summary of the method: as §1

## UMC-11
[1]; first compound 0.04 µM
  relative viability: 0.53
[1]; first compound 0.1265 µM
  relative viability: 0.327
[1]; first compound 0.4 µM
  relative viability: 0.289
[1]; first compound 1.265 µM
  relative viability: 0.175
[1]; first compound 4 µM
  relative viability: 0.159
[2]; first compound 0.08 µM
  relative viability: 1.04
[2]; first compound 0.253 µM
  relative viability: 1.04
[2]; first compound 0.8 µM
  relative viability: 1.02
[2]; first compound 2.53 µM
  relative viability: 1.03
[2]; first compound 8 µM
  relative viability: 1.19
[3]; first compound 0.08 µM
  relative viability: 0.841
[3]; first compound 0.253 µM
  relative viability: 0.749
[3]; first compound 0.8 µM
  relative viability: 0.756
[3]; first compound 2.53 µM
  relative viability: 0.744
[3]; first compound 8 µM
  relative viability: 0.831
[4]; first compound 0.08 µM
  relative viability: 0.961
[4]; first compound 0.253 µM
  relative viability: 1.01
[4]; first compound 0.8 µM
  relative viability: 1
[4]; first compound 2.53 µM
  relative viability: 0.955
[4]; first compound 8 µM
  relative viability: 0.651
